Assay results: paper PMC11585513, “A novel ACE inhibitory peptide from Pelodiscus sinensis Wiegmann meat water-soluble protein hydrolysate” (Amino Acids, 2024)
Like-named read-outs stand apart in the source and are kept apart here. Each block holds one compound with its values, some of them ahead of it. Peptide text beside a SMILES is read from it.

Experiments:
ACE [1] = settings: cited from earlier work
Description: The kinetics of IEWEF inhibition of ACE were determined by Lineweaver–Burk plot (Fig. 1). […] We speculate that IEWEF interacts with the non-active domain of ACE to form an enzyme-inhibitor complex even in the presence of substrate (Xie et al. [2022]). A number of non-competitive ACE inhibitory peptides have been reported in recent years, including GVSLPEW, GYGGVSLPEW, and VGINYW from α-lactalbumin (W ...

ACE [2] = molecular target: T1, ACE (Oryctolagus cuniculus, UniProt P12822); assay: In vitro assay of ACE inhibitory activity (HHL substrate, HPLC of hippuric acid); assay type: biochemical, rabbit; settings: for inhibition at 86.57 µM: 86.57 μmol/L; for inhibition at 86.57 µM / inhibition at 173.13 µM / inhibition at 346.26 µM / inhibition at 692.52 µM / inhibition at 2770.08 µM: read-out: ACE inhibitory activities (%); for inhibition at 173.13 µM: 173.13 μmol/L; for inhibition at 346.26 µM: 346.26 μmol/L; for inhibition at 692.52 µM: 692.52 μmol/L; for inhibition at 2770.08 µM: 2770.08 μmol/L
T1 construct: ACE (1U, derived from rabbit lung, CAS 207386-83-2); purchased Sigma-Aldrich Co. (St. Louis, MO, USA); host or cells: rabbit lung
T1 sequence (P12822 34-1310): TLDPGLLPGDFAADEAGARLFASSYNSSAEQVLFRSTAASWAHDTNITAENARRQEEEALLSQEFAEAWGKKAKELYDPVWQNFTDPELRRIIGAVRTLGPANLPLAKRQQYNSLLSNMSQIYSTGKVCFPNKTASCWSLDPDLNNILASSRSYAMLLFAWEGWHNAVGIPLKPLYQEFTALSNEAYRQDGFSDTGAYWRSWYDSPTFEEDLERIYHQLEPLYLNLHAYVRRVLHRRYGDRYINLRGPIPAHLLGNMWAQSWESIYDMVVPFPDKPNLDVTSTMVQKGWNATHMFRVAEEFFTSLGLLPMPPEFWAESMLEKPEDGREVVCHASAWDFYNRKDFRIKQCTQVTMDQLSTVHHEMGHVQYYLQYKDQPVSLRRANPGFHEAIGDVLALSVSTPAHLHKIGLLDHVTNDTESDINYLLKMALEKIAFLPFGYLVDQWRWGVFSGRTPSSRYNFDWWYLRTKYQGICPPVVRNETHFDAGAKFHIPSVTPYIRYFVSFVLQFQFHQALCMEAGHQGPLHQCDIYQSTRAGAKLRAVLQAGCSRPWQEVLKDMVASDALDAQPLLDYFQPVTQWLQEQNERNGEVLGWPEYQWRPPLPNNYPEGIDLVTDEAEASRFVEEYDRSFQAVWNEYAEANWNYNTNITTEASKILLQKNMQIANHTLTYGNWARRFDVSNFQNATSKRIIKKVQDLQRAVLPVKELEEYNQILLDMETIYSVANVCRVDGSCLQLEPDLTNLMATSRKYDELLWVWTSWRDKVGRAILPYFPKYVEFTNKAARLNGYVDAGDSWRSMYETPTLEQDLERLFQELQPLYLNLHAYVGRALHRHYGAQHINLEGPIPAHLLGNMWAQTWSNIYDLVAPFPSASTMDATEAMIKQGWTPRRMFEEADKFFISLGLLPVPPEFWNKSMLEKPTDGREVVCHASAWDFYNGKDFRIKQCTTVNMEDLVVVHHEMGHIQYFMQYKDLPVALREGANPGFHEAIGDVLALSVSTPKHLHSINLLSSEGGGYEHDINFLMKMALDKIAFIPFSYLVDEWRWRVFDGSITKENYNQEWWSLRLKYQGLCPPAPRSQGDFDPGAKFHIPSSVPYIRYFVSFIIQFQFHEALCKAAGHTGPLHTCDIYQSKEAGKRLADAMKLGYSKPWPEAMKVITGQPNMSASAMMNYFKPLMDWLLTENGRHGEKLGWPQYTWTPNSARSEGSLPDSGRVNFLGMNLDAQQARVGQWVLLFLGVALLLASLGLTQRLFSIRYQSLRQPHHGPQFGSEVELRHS
Description: WSPM prepared in our previous work (Sun et al. [2022]) and stored at − 20 °C after freeze-drying was used for this study. ACE (1U, derived from rabbit lung, CAS […]), Hippuryl-L-histidyl-L-leucine (HHL, CAS […]), and hippuric acid (HA, CAS 495-69-2) were obtained from Sigma-Aldrich Co. (St. Louis, MO, USA). The reagents used for HPLC analysis were all HPLC grade, and all other reagents used were analytical grade. The amounts of each protein were quantified using the BCA Protein Assay Kit (Bio-Rad, USA). All the protein samples were packed separately and stored at − 80 °C.
In vitro assay of ACE inhibitory activities of the selected peptides ACE inhibitory activity was evaluated in vitro according to previous methods with some modifications (Liao et al. [2018]; Xie et al. [2022]). All of the assays were carried out in 0.1 mol/L sodium borate buffer (containing 0.3 mol/L NaCl at pH 8.3). For each peptide of interest, 40 µL ACE solution (100 mU/mL) was pre-incubated with the peptide (60 µL) at 37 °C for 10 min. Next, 40 µL HHL solution (5.40 mmol/L) was added to the solution at 37 °C, and the reaction was allowed to proceed for 15 min at 37 °C. Finally, 60 µL 1 mol/L HCl was added to terminate the reaction. A borate buffer only control processed using the above procedure was also included for use as a blank. To quantify the amount of HA (hippuric acid) generated, 20 µL of reaction solution (pre-filtered using a 0.45 µm microporous membrane) was analyzed by HPLC (Waters e2695, Milford, USA) on a C18 column (150 × 4.6 mm, 5 µm; ThermoFisher Scientific, USA). The run conditions were as follows: mobile phase, methanol/water/phosphoric acid solution (15:84.9:0.1, V/V/V); flow rate, 1.0 mL/min; UV detection wavelength, 228 nm. All experiments were conducted in triplicate. ACE inhibitory activity was calculated according to the following equation:1 ACE inhibitory activity\%=B-A/B×100\% where A represents the peak area of HA in the sample, and B represents the peak area of HA in the blank.

ACE [3] = settings: at 0.5 mg/mL; ref Girgih et al. [2014]; cited from earlier work
Description: This is within the range (0.3 ~ 1000.0 µM) known to reduce blood pressure (Chen et al. [2022]). There are several reported ACE inhibitory peptides similar to IEWEF in their amino acid compositions, including IE, EW, IEW, EF, LEF and IEEAF. The peptides IE and EW are both ACE inhibitory peptides isolated from milk hydrolysates, although their IC50 values have not been reported thus far (van Platerink et al. [2008]).

[4] = from α-lactalbumin, ref Wei et al. [2022]
[5] = from Carapax Trionycis, ref Liao et al. [2018]

Compound: GYGGVSLPEW
Inhibition mode (ACE [1]; [4]): non-competitive

Compound: VGINYW
Inhibition mode (ACE [1]; [4]): non-competitive

Compound: KHMFK
Inhibition mode (ACE [1]; [5]): non-competitive

Compound: PPLLFAAL
Inhibition mode (ACE [1]; from Takifugu flavidus, ref Su et al. [2021]): non-competitive

inhibition at 86.57 µM (ACE [2]; replicate 1): 58.4%
inhibition at 86.57 µM (ACE [2]; replicate 2): 57.8%
inhibition at 86.57 µM (ACE [2]; replicate 3): 57.9%
inhibition at 173.13 µM (ACE [2]; replicate 1): 65.3%
inhibition at 173.13 µM (ACE [2]; replicate 2): 59.3%
inhibition at 173.13 µM (ACE [2]; replicate 3): 65%
inhibition at 346.26 µM (ACE [2]; replicate 1): 72.2%
inhibition at 346.26 µM (ACE [2]; replicate 2): 69.3%
inhibition at 346.26 µM (ACE [2]; replicate 3): 70.5%
inhibition at 692.52 µM (ACE [2]; replicate 1): 66.8%
inhibition at 692.52 µM (ACE [2]; replicate 2): 74.4%
inhibition at 692.52 µM (ACE [2]; replicate 3): 74.5%
inhibition at 2770.08 µM (ACE [2]; replicate 1): 91.2%
inhibition at 2770.08 µM (ACE [2]; replicate 2): 91%
inhibition at 2770.08 µM (ACE [2]; replicate 3): 91%
IC50 (ACE [2]; ACE 100 mU/mL from rabbit lung, HHL 5.40 mmol/L, 0.1 mol/L sodium borate buffer with 0.3 mol/L NaCl pH 8.3, 10 min pre-incubation, 15 min at 37 °C, HPLC-UV 228 nm, mean ± SD, n = 3, read-out: IC50 value against ACE): 41.3 µM
Compound: CC[C@H](C)[C@H](N)C(=O)N[C@@H](CCC(=O)O)C(=O)N[C@@H](Cc1c[nH]c2ccccc12)C(=O)N[C@@H](CCC(=O)O)C(=O)N[C@@H](Cc1ccccc1)C(=O)O [IEWEF, Ile-Glu-Trp-Glu-Phe] (H-IEWEF-OH)

Compound: KRER
Inhibition mode (ACE [1]; [5]): non-competitive

Compound: IEEAF
Inhibitory activity against ACE (ACE [3]): around 40%

Compound: KIGSRSRFEVT
Inhibition mode (ACE [1]; from the shiitake mushroom, ref Paisansak et al. [2021]): non-competitive

Compound: WGAP
Inhibition mode (ACE [1]; from rabbit meat, ref Chen et al. [2021]): non-competitive

Compound: LLYQEPLGPVR
Inhibition mode (ACE [1]; from casein hydrolysate, ref Liu et al. [2020]): non-competitive

Compound: GVSLPEW
Inhibition mode (ACE [1]; [4]): non-competitive
